The text below walks through data of US11554105B2, “Combinations of artemisinins, BCL-2 inhibitors, and kinase inhibitors for cancer treatment” (UNIVERSITY OF MARYLAND, BALTIMORE, priority 2018, dated 2023).

Data set [1] has as its system MOLM14, KOPN8 and RCH-ACV cell lines. Put plainly: Kinase inhibitor drug combination screen, summary over the three cell lines. The following applies: for synergy with either AS or ART-838: growth inhibition of human leukemia cell lines; for No. Cell Lines synergistically inhibited by drug 1 combined with AS and/or ART-838: >10% growth inhibition over the Bliss prediction, of three cell lines.

Data set [2] concerns MOLM14 cells. Put plainly: Combinations of AS, ART-838 or DHA with ABT-199, ABT-263 or ABT-737 (alamarBlue, 48 h). Type of data set: cell-based. The following applies: Homo sapiens, MOLM-14; for inhibition at 0.037 µM: MOLM14. On the procedure:
FIG. 12. […] Then cytotoxicity was evaluated by alamarBlue assays. Each experiment was performed in triplicate.
MOLM14 or KOPN8 cells were seeded in 96-well plates as described above for alamarBlue assays. […] AlamarBlue assays were performed as described above. Each set of drugs or drug combinations was tested in triplicate. Chou-Talalay drug combination analysis was performed as above.
Background: Alamar Blue is a resazurin reagent that responds to reducing activity.

Data set [3] has as its system MOLM14-luc AML xenografts. Put plainly: Subcutaneous MOLM14-luc xenograft growth, ARA with ART-838. Type of data set: in vivo, NSG mice. The following applies: tumor size on day 24; Ara-C 40 mg/kg/d i.p., ART-838 200 mg/kg/d p.o.
Method: Ara-C (40 mg/kg/d) was given i.p. on day 17, 18, 19, 20, 21 and 24. […] Mouse tumors were measured on the indicated days.
Highly immunodeficient NSG mice, obtained originally from Jackson Laboratory (Bar Harbor, Me.), were bred and housed in the UMSOM animal facilities, and handled in a laminar flow hood under aseptic conditions. […] For the human AML xenograft model, 6-12-week-old male NSG mice (>20 g) were transplanted sc with MOLM14-luc cells on day 0 and drug-treated via oral gavage, as specified in legend. Mice were monitored daily and euthanized when tumors reached an estimated mass of 2000 mg (using the formula: [length×width2]/2, assuming density=1 mg/mm3) [64].
Palpable tumors (approximately 100 mg tumor mass) appeared in mice about 2 weeks after transplantation. Mouse tumors were measured with calipers on the indicated days.
Data set [4] concerns MOLM14 cells. Put plainly: alamarBlue cytotoxicity assay, single drugs, 48 h. The conditions noted are these: Homo sapiens, MOLM-14, MOLM14, 48 h, means of at least three experiments. Type of data set: cell-based. On the procedure: Cytotoxicity was assessed using alamarBlue assays (Life Technologies, Grand Island, N.Y.; used for IC50 determinations and all drug combinations except the drug combination screen (method described separately below)) or Trypan Blue dye exclusion (Life Technologies, Grand Island, N.Y.; used for experiments using inhibitors that could interfere with alamarBlue assay performance (NAC, Tiron, DFO)).
(§1) Cell lines were seeded in 96-well tissue culture plates at 10^4 cells per well (myeloid leukemia lines) or 2×10^4 cells per well (lymphoid leukemia lines) in culture medium, followed by addition of drugs at the indicated concentrations. 2-4 wells per plate containing media-only were included for background subtraction. Peripheral wells were filled with sterile water to minimize the effects of evaporation.
Results were normalized to cells treated with vehicle (0.5% DMSO) alone. IC50s were calculated using CompuSyn software and represent the means of at least three experiments performed in triplicate.

In data set [5] the test system is mitochondrial superoxide in MOLM14 cells. Put plainly: Mitochondrial superoxide (MitoSOX Red, flow cytometry). Type of data set: cell-based, human. The conditions noted are these: 16 h; for mitochondrial superoxide generation, drug alone: 2.25× approximate 48 h IC50, MitoSox MFI; for effect of the drug on AS-induced superoxide: drug combined with AS, each at 2.25× approximate 48 h IC50; for effect of the drug on ART-838-induced superoxide: drug combined with ART-838, each at 2.25× approximate 48 h IC50. On the procedure: FIGS. 4A-4D. Effects of ART-838- and AS-containing drug combinations on MOLM14 growth and superoxide generation. […] CIs were computed as described above. CI<1 indicates synergy, CI=1, additivity, CI>1, antagonism. […] Cells were then loaded with 5 μM MitoSox for 30 min, washed, and analyzed by flow cytometry for MitoSox fluorescence (indicating mitochondrial superoxide) in the FL2 channel. Mean fluorescence intensity (MFI) was normalized to that of vehicle control (0.5% DMSO) with no pretreatment (100%, lower dotted lines). Upper dotted lines show MFI of ART-838- or AS-treated cells. Error bars represent the SEM of three independent experiments.
Cells were pretreated with NAC, Tiron, DFO, or vehicle then treated with AS, ART-838, or vehicle, as described above, then following a 16-hour drug treatment, cells were loaded with 5 μM MitoSOX Red (Invitrogen, Carlsbad, Calif.) for 30 minutes at 37° C. with 5% CO2, then analyzed using the FL2 channel of an Accuri C6 flow cytometer.
As both ART-838 and AS increased mitochondrial superoxide, and many antineoplastic drugs induce ROS generation, mitochondrial superoxide levels of MOLM14 cells treated with each of the above six antileukemic drugs were evaluated, alone and in combination with ART-838 or AS. All six drugs induced mitochondrial superoxide, although to a much lesser extent than did ART-838 (FIG. 4B) or AS (FIG. 4D).

The next data set relates to human AML cell lines. Put plainly: In vitro efficacies of artemisinin derivatives against human AML cell lines. Type of data set: cell-based. The method, then:
as §1
A novel trioxane dimer allyloxime-631 (ART631) has been designed to further extend in vivo T1/2 without sacrificing antimalarial activity.

The nature of another data set: in vivo. The conditions noted are these: NRG (NOD-Rag1null IL2rgnull), mouse, in vivo, po. The source says: FIG. 24. Concentration-time profile for 2C-ARTs with PK parameters.
FIG. 25A-25C. […] NOD-Rag1^nullIL2rg^null (NRG) mice were transplanted IV with Luc-labelled MV4; 11 cells on d10. […] FIG. 25A) MTD cyclic drug treatment schema.

Data set [6] relates to MOLM14 cells. Put plainly: Chou-Talalay drug combination analysis (alamarBlue) of AS or ART-838 with antileukemic drugs. Type of data set: cell-based, human. The conditions noted are these: simultaneous 48 h, each drug at 2.25× single-drug IC50, CI<1 synergy, =1 additivity, >1 antagonism. On the procedure: For each two-drug pair, dose-response curves were generated for each drug individually and for the two drugs combined. […] This design is based on the recommendation of Chou that combination experiments be performed with drugs combined in an equipotent ratio based on their respective single-drug IC50 values. Following a 48-hour incubation with each drug or drug pair, cytotoxicity assays were performed using alamarBlue as described above.
Each set of drug combinations was tested in at least three independent experiments, each in triplicate.
Sequences are depicted at the bottom of FIG. 5.

Where two headings read alike, the source gives them in different places. Marks after values point to notes of the source that are not given here.

Turning to `CC1(C)CCC(CN2CCN(c3ccc(C(=O)NS(=O)(=O)c4ccc(NCC5CCOCC5)c([N+](=O)[O-])c4)c(Oc4cnc5[nH]ccc5c4)c3)CC2)=C(c2ccc(Cl)cc2)C1` [ABT-199, venetoclax], in data set [1] (average of 3/3 cell lines), the “average inhibition over the Bliss predictions, ABT-199 plus ART-838” value is listed as 21% and the “average inhibition over the Bliss predictions, ABT-199 plus AS” value is recorded as 17%. For the same compound, the inhibition (commonly the relative decrease from the control value, in per cent) at 0.037 µM with MOLM14 cells [2] (37 nM ABT-199 + 25 nM ART-838, read-out: growth inhibition, ABT-199 together with ART-838) was 100%. Besides, the inhibition at 0.037 µM with MOLM14 cells [2] (37 nM ABT-199 + 825 nM AS, read-out: growth inhibition, ABT-199 together with AS) came to 100%.
For `CC1(C)CCC(c2ccc(Cl)cc2)=C(CN2CCN(c3ccc(C(=O)NS(=O)(=O)c4ccc(N[C@H](CCN5CCOCC5)CSc5ccccc5)c(S(=O)(=O)C(F)(F)F)c4)cc3)CC2)C1` [ABT-263, navitoclax], the “synergy with either AS or ART-838” value in data set [1] was “Particularly strong synergy”.
Consider `CN(C)CC[C@H](CSc1ccccc1)Nc1ccc(S(=O)(=O)NC(=O)c2ccc(N3CCN(Cc4ccccc4-c4ccc(Cl)cc4)CC3)cc2)cc1[N+](=O)[O-]` [ABT-737], for which, in data set [1], the “No. Cell Lines synergistically inhibited by drug 1 combined with AS and/or ART-838” value (“No. Cell Lines synergistically inhibited” below) is 3/3 and the “synergy with either AS or ART-838” value is reported as “Particularly strong synergy”.
As to `O=C(Nc1cccc(C(F)(F)F)c1)Nc1cc(S(=O)(=O)NC2CC2)ccc1-c1ccsc1` [AGI6780], in data set [1], the “No. Cell Lines synergistically inhibited” value is 2/3**.
For the compound `Nc1ccn([C@@H]2O[C@H](CO)[C@@H](O)[C@@H]2O)c(=O)n1` [ARA, cytarabine], the “tumor growth inhibition, ARA plus ART-838 versus either drug alone” value in data set [3] was “inhibited tumor growth substantially more than did either drug alone”. The half-inhibitory concentration (IC50) (in general, the concentration that inhibits the measured activity by half) in the data set with MOLM14 cells [4] turned out to be 286 nM. In data set [5], the “mitochondrial superoxide generation, drug alone” value is reported as “induced mitochondrial superoxide generation” and the “effect of the drug on AS-induced superoxide” value was “further enhanced”.
For the compound `C[C@H]1[C@H](OC(=O)CCC(=O)O)O[C@@H]2O[C@@]3(C)CC[C@H]4[C@H](C)CC[C@@H]1[C@@]24OO3` [AS, artesunate], the IC50 was 1720 nM in the data set with human AML cell lines (median over the human AML cell lines tested (11 for AS and ART838, 4 for ART631), read-out: IC50 median); 796 to 6260 nM in the data set on human AML cell lines (range over the human AML cell lines tested (11 for AS and ART838, 4 for ART631), read-out: IC50 range); 825 nM in the data set with MOLM14 cells [2] (MOLM14 (AML) cell line). Besides, in “in vivo”, the MTD at 5 d was 200 mg/kg/day. The “mitochondrial superoxide generation, drug alone” value in data set [5] is “induced mitochondrial superoxide generation”.
As for `C[C@@H](Oc1cc(-c2cnn(C3CCNCC3)c2)cnc1N)c1c(Cl)ccc(F)c1Cl` [Crizotinib], the “No. Cell Lines synergistically inhibited” value in data set [1] is reported as 2/3**.
Turning to `COc1cccc2c1C(=O)c1c(O)c3c(c(O)c1C2=O)C[C@@](O)(C(=O)CO)C[C@@H]3O[C@H]1C[C@H](N)[C@H](O)[C@H](C)O1` [DOX, doxorubicin], in data set [5], the “mitochondrial superoxide generation, drug alone” value was “induced mitochondrial superoxide generation”; the “effect of the drug on ART-838-induced superoxide” value is listed as “further enhanced”; the “effect of the drug on AS-induced superoxide” value is given as “further enhanced”.
For the compound `COc1cc([C@@H]2c3cc4c(cc3[C@@H](O[C@@H]3O[C@@H]5CO[C@@H](C)O[C@H]5[C@H](O)[C@H]3O)[C@H]3COC(=O)[C@H]23)OCO4)cc(OC)c1O` [ETO, etoposide], the half-inhibitory concentration (IC50) in the data set with MOLM14 cells [4] was found to be 242 nM. In addition, in data set [5], the “mitochondrial superoxide generation, drug alone” value was “induced mitochondrial superoxide generation”; the “effect of the drug on ART-838-induced superoxide” value was “further enhanced”; the “effect of the drug on AS-induced superoxide” value was “further enhanced”.
Turning to `CCc1cc(Nc2nccc(-c3c(-c4ccc(OC)c(C(=O)Nc5c(F)cccc5F)c4)nc4ccccn34)n2)c(OC)cc1N1CCC(N2CCN(S(C)(=O)=O)CC2)CC1` [GSK-1904529A], in data set [1], the “No. Cell Lines synergistically inhibited” value is 3/3.
Same read-out and setting: under `COc1ccc(COc2ccc(Cc3cnc(N)nc3N)cc2OC)cc1` [GW-2580] stands 2/3.
Still for that read-out and setting: under `O=S(=O)(NCCNC/C=C/c1ccc(Br)cc1)c1cccc2cnccc12` [H-89] stands 2/3; under `Cn1cc(-c2ccc3nnc(C(F)(F)c4ccc5ncccc5c4)n3n2)cn1` [JNJ-38877605], 2/3.
With `C[C@]12O[C@H](C[C@]1(O)CO)n1c3ccccc3c3c4c(c5c6ccccc6n2c5c31)CNC4=O` [LES, lestaurtinib], the “combination index (CI) of the drug combined with AS” value with MOLM14 cells [6] was determined as 1.5.
With `Nc1ncnc2c1c(-c1cccc(OCc3ccccc3)c1)cn2C1CC(CN2CCCC2)C1` (centres unmarked) [NVP-ADW742], the “No. Cell Lines synergistically inhibited” value in data set [1] is listed as 2/3.
`Cc1ccc(S(=O)(=O)OCC(=O)Nc2ccc(C(=O)O)c(O)c2)cc1` [S31-201]: in data set [1], the “No. Cell Lines synergistically inhibited” value is 2/3.
